Data published in PubChem BioAssay AID316 (DTP/NCI, 2004).
“And” between values parts separate entries of the source, which are not always exact repeats. Equal entries are not always repeated. Inconclusive results and toxic doses are left out.

System: P1534 leukemia ip, CD2F1 mice, survival T/C
Experiment: NCI In Vivo Anticancer Drug Screen. Data for tumor model P1534 Leukemia (intraperitoneal) in CD2F1 (CDF1) mice
Details: endpoint: mean survival time, higher = longer survival
Description: The antitumor activity of compounds was measured in mice bearing transplantable tumors. Survival or tumor size were measured and the results are expressed as the measurement made in the treated group (T) divided by the measurement made in the vehicle treated control group (C). The tumor model used in this assay is P1534 Leukemia (intraperitoneal) in CD2F1 (CDF1) mice

[1] = dose: 3.0 mg/kg/injection, schedule: Q01DX010 (ip), vehicle: saline
[2] = dose: 6.0 mg/kg/injection, schedule: Q01DX010 (ip), vehicle: saline
[3] = dose: 100.0 mg/kg/injection, schedule: Q01DX010 (ip), vehicle: water
[4] = dose: 6.25 mg/kg/injection, schedule: Q01DX010 (ip), vehicle: saline
[5] = dose: 12.5 mg/kg/injection, schedule: Q01DX010 (ip), vehicle: saline
[6] = dose: 25.0 mg/kg/injection, schedule: Q01DX010 (ip), vehicle: saline
[7] = dose: 50.0 mg/kg/injection, schedule: Q01DX010 (ip), vehicle: saline
[8] = dose: 100.0 mg/kg/injection, schedule: Q01DX010 (ip), vehicle: saline
[9] = dose: 200.0 mg/kg/injection, schedule: Q01DX010 (ip), vehicle: saline
[10] = dose: 7.5 mg/kg/injection, schedule: Q01DX010 (ip), vehicle: saline
[11] = dose: 300.0 mg/kg/injection, schedule: Q01DX010 (ip), vehicle: saline
[12] = dose: 450.0 mg/kg/injection, schedule: Q01DX010 (ip), vehicle: saline
[13] = dose: 675.0 mg/kg/injection, schedule: Q01DX010 (ip), vehicle: saline

For `NC(=O)c1ccc(N)nc1`, the T/C (dose: 0.25 mg/kg/injection, schedule: Q#A X020 (ip), vehicle: saline) was 119 % of control, the T/C (dose: 0.38 mg/kg/injection, schedule: Q01DX010 (ip), vehicle: saline) was 120 % of control and 94 % of control and the T/C (dose: 0.75 mg/kg/injection, schedule: Q01DX010 (ip), vehicle: saline) was 153 % of control. The T/C (dose: 1.5 mg/kg/injection, schedule: Q01DX006 (iv), vehicle: saline) was 114 % of control, the T/C (dose: 1.5 mg/kg/injection, schedule: Q01DX010 (im), vehicle: saline) was 121 % of control and the T/C (dose: 1.5 mg/kg/injection, schedule: Q01DX010 (oral), vehicle: saline) was 100 % of control. For the same molecule, the T/C (dose: 1.5 mg/kg/injection, schedule: Q01DX010 (sc), vehicle: saline) was 121 % of control, the T/C (dose: 1.5 mg/kg/injection, schedule: Q03DX Z (ip), vehicle: saline) was 119 % of control and the T/C (dose: 2.0 mg/kg/injection, schedule: Q#A X020 (ip), vehicle: saline) was 100 % of control. For the same molecule, the T/C (dose: 3.0 mg/kg/injection, schedule: Q01DX006 (iv), vehicle: saline) was 114 % of control, the T/C (dose: 3.0 mg/kg/injection, schedule: Q01DX010 (im), vehicle: saline) was 121 % of control and the T/C [1] was 158 % of control. For the same molecule, the T/C (dose: 3.0 mg/kg/injection, schedule: Q01DX010 (oral), vehicle: saline) was 123 % of control, the T/C (dose: 3.5 mg/kg/injection, schedule: Q01DX001 (ip), vehicle: saline) was 115 % of control and the T/C (dose: 3.5 mg/kg/injection, schedule: Q07DX Z (ip), vehicle: saline) was 115 % of control. The T/C (dose: 6.0 mg/kg/injection, schedule: Q01DX010 (im), vehicle: saline) was 121 % of control, the T/C [2] was 88 % of control and the T/C (dose: 7.0 mg/kg/injection, schedule: Q01DX001 (ip), vehicle: saline) was 115 % of control. The T/C (dose: 12.0 mg/kg/injection, schedule: Q03DX Z (ip), vehicle: saline) was 119 % of control, the T/C (dose: 14.0 mg/kg/injection, schedule: Q01DX001 (ip), vehicle: saline) was 117 % of control and 119 % of control and the T/C (dose: 14.0 mg/kg/injection, schedule: Q07DX Z (ip), vehicle: saline) was 117 % of control and 119 % of control. The T/C (dose: 28.0 mg/kg/injection, schedule: Q01DX001 (ip), vehicle: saline) was 88 % of control and the T/C (dose: 112.0 mg/kg/injection, schedule: Q01DX001 (ip), vehicle: saline) was 121 % of control.
For `NC(=O)c1cn[nH]c1N`, the T/C [3] was 100 % of control and the T/C (dose: 200.0 mg/kg/injection, schedule: Q01DX010 (ip), vehicle: water) was 93 % of control.
In the case of `c1ccc(CNc2ncnc3[nH]ncc23)cc1`, the T/C (dose: 8.0 mg/kg/injection, schedule: Q01DX010 (ip), vehicle: saline) was 100 % of control, the T/C (dose: 16.0 mg/kg/injection, schedule: Q01DX010 (ip), vehicle: saline) was 110 % of control and the T/C (dose: 32.0 mg/kg/injection, schedule: Q01DX010 (ip), vehicle: saline) was 120 % of control and 90 % of control. The T/C (dose: 64.0 mg/kg/injection, schedule: Q01DX010 (ip), vehicle: saline) was 105 % of control and 110 % of control.
`O=C(O)c1[nH]c(=O)[nH]c(=O)c1F` was tested, and the T/C (dose: 1.25 mg/kg/injection, schedule: Q01DX010 (ip), vehicle: saline) was 106 % of control, the T/C (dose: 5.0 mg/kg/injection, schedule: Q01DX010 (ip), vehicle: saline) was 236 % of control and the T/C (dose: 10.0 mg/kg/injection, schedule: Q01DX010 (ip), vehicle: saline) was 106 % of control.
In the case of `O=NN(CCCl)C(=O)NCCCl`, the T/C [4] was 265 % of control and 290 % of control and the T/C [5] was 150 % of control and 170 % of control.
With `O=c1[nH]cnc2ccccc12` the T/C [6] was 107 % of control, the T/C [7] was 100 % of control and the T/C [8] was 103 % of control. The T/C [9] was 114 % of control.
`C[C@@H](N)[C@@H](O)c1ccccc1` was tested, and the T/C (dose: 0.39 mg/kg/injection, schedule: Q01DX010 (ip), vehicle: saline) was 103 % of control, the T/C (dose: 0.78 mg/kg/injection, schedule: Q01DX010 (ip), vehicle: saline) was 100 % of control and the T/C (dose: 1.56 mg/kg/injection, schedule: Q01DX010 (ip), vehicle: saline) was 100 % of control. For the same molecule, the T/C (dose: 3.13 mg/kg/injection, schedule: Q01DX010 (ip), vehicle: saline) was 103 % of control.
`CC[C@]12C=CCN3CC[C@@]4(c5ccc(OC)cc5N(C)[C@H]4[C@@](O)(C(=O)OC)[C@@H]1OC(C)=O)[C@@H]32` was tested, and the T/C [10] was 93 % of control, the T/C (dose: 15.0 mg/kg/injection, schedule: Q01DX010 (ip), vehicle: saline) was 93 % of control and the T/C (dose: 30.0 mg/kg/injection, schedule: Q01DX010 (ip), vehicle: saline) was 96 % of control. For the same molecule, the T/C (dose: 60.0 mg/kg/injection, schedule: Q01DX010 (ip), vehicle: saline) was 86 % of control.
In the case of `C[C@@H]1CCC([C@@H](C)[C@H]2CC[C@H]3[C@@H]4CC[C@H]5C[C@@H](O)CC[C@]5(C)[C@H]4CC[C@]23C)=NC1`, the T/C [5] was 107 % of control, the T/C [6] was 103 % of control and the T/C [7] was 100 % of control. For the same molecule, the T/C [8] was 100 % of control.
`c1ccc2ncccc2c1` was tested, and the T/C [6] was 100 % of control, the T/C [7] was 100 % of control and the T/C [8] was 96 % of control.
`COC1=C(N)C(=O)c2nc(-c3nc(C(=O)O)c(C)c(-c4ccc(OC)c(OC)c4O)c3N)ccc2C1=O` was tested, and the T/C (dose: 0.06 mg/kg/injection, schedule: Q01DX010 (ip), vehicle: saline) was 117 % of control, the T/C (dose: 0.09 mg/kg/injection, schedule: Q01DX010 (ip), vehicle: saline) was 110 % of control and the T/C (dose: 0.13 mg/kg/injection, schedule: Q01DX010 (ip), vehicle: saline) was 103 % of control.
In the case of `CCCCCCCCCCCCNCCCCCCCCCCCC`, the T/C (dose: 5.0 mg/kg/injection, schedule: Q01DX010 (ip), vehicle: other) was 106 % of control and the T/C (dose: 10.0 mg/kg/injection, schedule: Q01DX010 (ip), vehicle: other) was 98 % of control.
In the case of `COCCOC`, the T/C [11] was 100 % of control, the T/C [12] was 107 % of control and the T/C [13] was 103 % of control.
With `CS(=O)(=O)OCCCCOS(C)(=O)=O` the T/C [4] was 106 % of control and 88 % of control, the T/C [5] was 88 % of control and 100 % of control and the T/C [6] was 112 % of control and 88 % of control. The T/C [7] was 112 % of control and 100 % of control.
In the case of `O=C(O)c1cc(C(=O)O)[nH]n1`, the T/C [3] was 103 % of control and the T/C (dose: 150.0 mg/kg/injection, schedule: Q01DX010 (ip), vehicle: water) was 103 % of control.
For `CCC12CCCN3CCc4c(n(c5ccccc45)C(O)(C(=O)OC)C1)C32` (stereo not given), the T/C (dose: 1.88 mg/kg/injection, schedule: Q01DX010 (ip), vehicle: saline) was 90 % of control, the T/C (dose: 3.75 mg/kg/injection, schedule: Q01DX010 (ip), vehicle: saline) was 93 % of control and the T/C [10] was 96 % of control.
In the case of `CC(=O)OCC1OC(n2ncc(=O)[nH]c2=O)C(OC(C)=O)C1OC(C)=O` (stereo not given), the T/C [11] was 89 % of control, the T/C [12] was 96 % of control and the T/C [13] was 100 % of control.
With `Nc1ncnc2[nH]ncc12` the T/C (dose: 1.5 mg/kg/injection, schedule: Q01DX010 (ip), vehicle: saline) was 100 % of control, the T/C [1] was 110 % of control and 100 % of control and the T/C [2] was 120 % of control and 100 % of control. For the same molecule, the T/C (dose: 12.0 mg/kg/injection, schedule: Q01DX010 (ip), vehicle: saline) was 115 % of control and 95 % of control.
In the case of `CS(=O)(=O)OCC(O)C(O)COS(C)(=O)=O` (stereo not given), the T/C (dose: 20.0 mg/kg/injection, schedule: Q01DX010 (ip), vehicle: saline) was 107 % of control, the T/C (dose: 40.0 mg/kg/injection, schedule: Q01DX010 (ip), vehicle: saline) was 107 % of control and the T/C (dose: 80.0 mg/kg/injection, schedule: Q01DX010 (ip), vehicle: saline) was 107 % of control. For the same molecule, the T/C [8] was 103 % of control, the T/C (dose: 160.0 mg/kg/injection, schedule: Q01DX010 (ip), vehicle: saline) was 117 % of control and the T/C [9] was 103 % of control. The T/C (dose: 400.0 mg/kg/injection, schedule: Q01DX010 (ip), vehicle: saline) was 107 % of control and the T/C (dose: 800.0 mg/kg/injection, schedule: Q01DX010 (ip), vehicle: saline) was 89 % of control.
`CC(=O)OC(C)(C)/C=C/C(=O)[C@](C)(O)[C@H]1[C@H](O)C[C@@]2(C)[C@@H]3CC=C4[C@@H](C[C@H](O)C(=O)C4(C)C)[C@]3(CO)C(=O)C[C@]12C` was tested, and the T/C (dose: 0.16 mg/kg/injection, schedule: Q01DX010 (ip), vehicle: saline) was 103 % of control, the T/C (dose: 0.25 mg/kg/injection, schedule: Q01DX010 (ip), vehicle: saline) was 107 % of control and the T/C (dose: 0.57 mg/kg/injection, schedule: Q01DX010 (ip), vehicle: saline) was 103 % of control.
With `O=C(O)CCCc1ccc(N(CCCl)CCCl)cc1` the T/C (dose: 6.25 mg/kg/injection, schedule: Q01DX010 (ip), vehicle: other) was 114 % of control and the T/C (dose: 25.0 mg/kg/injection, schedule: Q01DX010 (ip), vehicle: other) was 103 % of control.
